Experimental data reported in PMC3200564 (European journal of nuclear medicine and molecular imaging, 2011).

How the values were obtained:
[1] = target: T1, extracellular vWA domain of TEM8 (Homo sapiens, UniProt Q9H6X2); assay: biochemical; assay type: binding
T1 sequence (Q9H6X2 44-215 limits assumed): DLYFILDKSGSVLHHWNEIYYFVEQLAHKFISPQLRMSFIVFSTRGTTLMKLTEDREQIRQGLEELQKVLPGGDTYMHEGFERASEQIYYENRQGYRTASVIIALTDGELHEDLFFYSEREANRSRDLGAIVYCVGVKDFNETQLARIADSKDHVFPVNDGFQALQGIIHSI

TEM8 (293-TEM8 cells) = TEM8 (293-TEM8 cells) (Homo sapiens, UniProt Q9H6X2); assay: biochemical; assay type: binding
Sequence of TEM8 (293-TEM8 cells) (Q9H6X2 33-564): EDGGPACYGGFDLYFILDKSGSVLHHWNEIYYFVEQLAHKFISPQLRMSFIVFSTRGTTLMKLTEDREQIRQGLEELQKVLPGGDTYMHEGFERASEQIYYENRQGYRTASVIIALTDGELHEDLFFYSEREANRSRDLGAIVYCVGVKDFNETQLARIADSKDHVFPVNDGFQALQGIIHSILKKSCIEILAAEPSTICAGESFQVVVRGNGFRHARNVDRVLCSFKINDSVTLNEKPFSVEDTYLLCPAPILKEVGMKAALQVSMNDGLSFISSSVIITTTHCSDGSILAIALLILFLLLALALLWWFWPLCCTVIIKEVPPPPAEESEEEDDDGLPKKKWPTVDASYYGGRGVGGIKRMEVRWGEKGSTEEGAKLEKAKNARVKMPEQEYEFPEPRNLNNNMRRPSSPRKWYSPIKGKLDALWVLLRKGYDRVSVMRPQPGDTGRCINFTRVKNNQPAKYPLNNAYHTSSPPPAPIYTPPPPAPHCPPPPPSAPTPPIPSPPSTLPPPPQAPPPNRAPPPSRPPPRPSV

CC[C@H](C)[C@H](NC(=O)[C@H](Cc1ccc(O)cc1)NC(=O)[C@H](CC(C)C)NC(=O)[C@@H]1CCCN1C(=O)[C@H](CC(C)C)NC(=O)[C@H](CCCNC(=N)N)NC(=O)[C@H](CC(=O)O)NC(=O)[C@H](CC(N)=O)NC(=O)[C@H](Cc1ccc(O)cc1)NC(=O)[C@@H](N)CCCCN)C(=O)N[C@@H](CO)C(=O)N[C@@H](CC(N)=O)C(=O)N1CCC[C@H]1C(=O)O [QQM, KYNDRLPLYISNP]
IC50 [1]: 304 nM
IC50 (TEM8 (293-TEM8 cells)): 33 nM
